Test results reported in PubChem BioAssay (NCI).
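1) Cells in 96-well plates. 2) Compound, 48 h, 5 concentrations. 3) Linear interpolation between surrounding doses. 4) Unreached endpoint = highest concentration. Definition used: TGI = concentration required for complete inhibition of growth.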

Legend:
Experiment in all cases: NCI-60 cell line screen, 48 h
HT29 colon = test system: HT29 colon
MALME-3M melanoma = test system: MALME-3M melanoma
SW-620 colon = test system: SW-620 colon
MDA-N = test system: MDA-N
MDA-MB-231 breast = test system: MDA-MB-231 breast
786-0 renal = test system: 786-0 renal
OVCAR-5 ovarian = test system: OVCAR-5 ovarian
COLO 205 colon = test system: COLO 205 colon
HOP-92 NSCLC = test system: HOP-92 NSCLC
RPMI-8226 leukemia = test system: RPMI-8226 leukemia
A549 NSCLC = test system: A549 NSCLC
HS 578T breast = test system: HS 578T breast

| Structure (SMILES) | TGI (HT29 colon) [µM] | TGI (MALME-3M melanoma) [µM] | TGI (SW-620 colon) [µM] | TGI (MDA-N) [µM] | TGI (MDA-MB-231 breast) [µM] | TGI (786-0 renal) [µM] | TGI (OVCAR-5 ovarian) [µM] | TGI (COLO 205 colon) [µM] | TGI (HOP-92 NSCLC) [µM] | TGI (RPMI-8226 leukemia) [µM] | TGI (A549 NSCLC) [µM] | TGI (HS 578T breast) [µM] |
| --- | --- | --- | --- | --- | --- | --- | --- | --- | --- | --- | --- | --- |
| CNC(=O)N(CCC#N)CCN(CCN(C(=O)NC)c1ccccc1)C(=O)NC | > 100 | > 100 | > 100 | > 100 | > 100 | > 100 | > 100 | > 100 | > 100 | > 100 | > 100 |  |
| O=C(O)/C(=C\c1ccccc1)Cc1ccccc1 | > 100 | > 100 | > 100 | > 100 | > 100 | > 100 | > 100 | > 100 | > 100 | > 100 | > 100 | > 100 |
| Nc1ncnc2c1ncn2CC(OCP(=O)(O)O)Oc1ccccc1 (stereo unspecified) |  |  | > 100 | > 100 | > 100 | > 100 | > 100 | > 100 | > 100 | > 100 | > 100 | > 100 |
| COC(=O)[C@]1(c2cc3ccccc3n2S(=O)(=O)c2ccccc2)CC2CCC1NC2 (stereo partly specified) | 25.7 | 30.5 | 31.3 | 27.8 | 27.1 | 27.3 | 29.9 | 29.7 | 24.4 | 23.1 | 25.2 |  |
| Cc1sc(N=Nc2c(O)[nH]c3ccccc23)nc1-c1ccccc1 | 54.5 |  | 71.4 | 76.4 | 33.3 | 36.6 | 49.3 | 46.2 | 45.2 |  | 32.6 |  |
| Cc1cc(S(=O)(=O)Nc2nc(N)n(C)n2)c(S)cc1Cl | > 10 | > 10 | > 10 | > 10 | > 10 | > 10 | > 10 | > 10 |  | > 10 | > 10 | > 10 |
| CNC(Cc1ccccc1)c1cccc(OC)c1O (stereo unspecified) | > 100 | > 100 | > 100 | > 100 | > 100 | > 100 | > 100 |  | > 100 |  | > 100 | > 100 |
| COc1cc(/C=C2\NC(=O)N(/C=C3\C(=O)Oc4ccccc4C3=O)C2=O)ccc1O | > 100 |  | > 100 | > 100 | > 100 | > 100 | > 100 | > 100 | > 100 | > 100 | > 100 | > 100 |
| O=S(=O)(Nc1ccccc1S(=O)(=O)c1ccccc1)c1ccccc1 | > 100 | > 100 | > 100 | > 100 | > 100 | > 100 | > 100 | > 100 | > 100 | > 100 | > 100 | > 100 |
| Cc1cccc(C)c1NC(=S)/N=C/C1=C(O)c2ccccc2C1=O | > 79.2 |  | > 100 | > 95.5 | > 100 | > 100 | > 100 | > 40.4 | > 65.8 | 31 | > 100 | > 100 |
| O=C(c1nsc(Cl)c1Cl)N1CCCCC1 | > 100 | > 100 | > 100 | > 100 | > 100 | > 100 | > 100 | > 100 |  | > 100 | > 100 | > 100 |
| Cc1c(-c2ccccc2)n(C)c2cn[nH]c(=O)c12 | 81.3 | > 100 | > 100 | > 100 | 36.9 | 62.5 | > 100 | 32 | > 100 | > 100 | > 100 | > 100 |
| C=CCC1(O)c2cccc(O)c2C(=O)c2c(O)cccc21 | 67.9 |  | > 100 | 45 | > 100 | > 100 | > 100 |  | 88.9 | > 100 | 88.4 | 63.1 |
| CC(=O)OCCn1c(Cc2ccc([N+](=O)[O-])cc2)nn(C(C)=O)c1=O | > 100 | > 100 | > 100 | > 100 | > 100 | > 100 | > 100 | > 100 | > 100 | > 100 | > 100 | > 100 |
| Cc1cc2c3c(ccc4ncc(c43)CN2c2ccc(NS(C)(=O)=O)cc2)[nH]1 | > 100 |  | > 100 | > 100 | 68.1 | 23.5 | > 100 | > 100 | 92.2 | 55.3 | 88.5 | > 100 |
| COc1cc(CNC(=O)CCCCCCCC/C=C/Br)ccc1O | > 10 | > 10 | > 10 | > 10 | > 10 | > 10 |  | > 10 | > 10 | > 10 | > 10 | > 10 |
| COC(=O)c1ccccc1CC1Cc2cc3c(cc2C1)CCC3 | > 100 | 52 | > 100 | > 100 | > 100 | > 100 | > 100 | 52.7 | 71.2 | 40.1 | > 100 | > 100 |
| CCCNc1[nH]c(C(C)=O)c(N)c1C(=S)Nc1ccccc1 | 53.2 | 83.9 | > 100 | > 100 | > 100 | 75.6 | > 100 | > 100 | > 100 |  | > 100 | > 100 |
| COc1cc2cc(C(=O)N3CC(COS(C)(=O)=O)c4c3cc([N+](=O)[O-])c3ccccc43)[nH]c2c(OC)c1OC (stereo unspecified) | > 31.6 |  | > 31.6 | > 100 | > 100 |  | > 31.6 | > 100 | > 31.6 | > 31.6 | > 31.6 | > 31.6 |
| OCCOCCO[P+]1(OCCOCCO)n2c3ccc2C(c2ccccc2)=C2C=CC(=N2)C(c2ccccc2)=c2ccc(n21)=C(c1ccccc1)C1=NC(=C3c2ccccc2)C=C1 | 0.358 | 0.706 | 1.31 | 0.121 | 0.247 | 1.51 | 1.95 | 0.0998 | > 100 | 0.0896 | 3.29 | 0.379 |

| Structure (SMILES) | TGI (HT29 colon) [µM] | TGI (MALME-3M melanoma) [µM] | TGI (SW-620 colon) [µM] | TGI (MDA-N) [µM] | TGI (MDA-MB-231 breast) [µM] | TGI (786-0 renal) [µM] | TGI (OVCAR-5 ovarian) [µM] | TGI (COLO 205 colon) [µM] | TGI (HOP-92 NSCLC) [µM] | TGI (RPMI-8226 leukemia) [µM] | TGI (A549 NSCLC) [µM] | TGI (HS 578T breast) [µM] |
| --- | --- | --- | --- | --- | --- | --- | --- | --- | --- | --- | --- | --- |
| CC(=O)Oc1ccc(-c2cc3ccccc3oc2=O)cc1OC(C)=O | > 100 | > 100 | > 100 | > 100 | > 100 | > 100 | > 100 | > 100 |  | > 100 | 94.7 | > 100 |
| CC(C)CCNC(=O)c1ccc(CNC(=O)/C=C/c2ccc(-c3ccccc3[N+](=O)[O-])o2)cc1 |  |  | > 100 | > 100 | > 100 | > 100 | > 100 | > 100 |  | > 100 | > 100 |  |
| Nc1nc(Nc2ccc(Cl)cc2)sc1C(=O)c1cc2ccccc2oc1=O | > 100 | 76.8 | > 100 | > 100 | > 100 | > 100 | > 100 | > 100 | > 100 | > 100 | > 100 | > 100 |
| COc1ccc(OC)c(C2CCc3cnc4nc(N)nc(N)c4c3C2)c1 (stereo unspecified) | > 100 | > 100 | > 100 | > 100 | > 100 | > 100 | > 100 | > 100 | > 100 | > 100 | > 100 | > 100 |
| CC[C@H](CCCCC1CC[C@@H]2CC(=O)C[C@H]12)OC (stereo partly specified) | > 100 | > 100 | > 100 | > 100 | > 100 | > 100 | > 100 | > 100 | > 100 | > 100 | > 100 | > 100 |
| N#Cc1c(N2CCOCC2)ncn(-c2ccccc2)c1=O |  |  | > 100 | > 100 |  | > 100 | > 100 | > 100 | > 100 | > 100 | > 100 |  |
| CCCCc1ccc(Nc2nc(Cl)c3[nH]cnc3n2)cc1 | 36.3 | 42.2 | 37.4 | 43.1 | 30.2 | 29.1 | > 100 | 43.4 | 26.3 | > 100 | > 100 | 50.5 |
| CCNC1CC(C(C)(C)NCC)CC=C1C (stereo unspecified) | > 100 |  | > 100 | > 100 | > 100 | > 100 | > 100 | > 100 | > 100 |  | > 100 |  |
| CCCCNc1nc(SC)nc2nc[nH]c12 | > 100 | > 100 | > 100 | > 100 | > 100 | > 100 | > 100 | > 100 | > 100 | > 100 | > 100 | 21.9 |
| COc1cc2c[n+](C)c3c4ccccc4ccc3c2cc1OC | > 47.6 | 5.53 | > 63.6 | > 36.7 | 14.8 | 60.4 | > 100 | 5.6 |  | 10.1 | 23.2 | 13 |
| COc1cc2c(cc1OC)-c1cc3ccccc3c(=O)n1CCC2 | 41.2 | 98.1 | > 87.9 | 33.6 | 57.2 | > 51.3 | > 100 | > 60.2 | 68.3 | 29.4 | > 100 | > 100 |
| C=CCCCC1(C)CCCCNC1=O (stereo unspecified) | > 10 | > 10 | > 10 | > 10 | > 10 | > 10 | > 10 | > 10 |  | > 10 | > 10 | > 10 |
| COc1cc(Cn2c3c(c4cc(O)ccc42)C(=O)c2ccccc2C3=O)cc(OC)c1 | 16.2 | 43.8 | > 100 | > 100 | 23.6 | 10.2 | 32.9 | 34.7 | 19.7 | 3.73 | 49.6 | > 100 |
| CN1c2ccccc2C2c3c(O)ccc(O)c3C=C([N+](=O)[O-])C21 (stereo unspecified) | 0.568 |  |  | 1.5 | 7.44 | 2.13 | 5.87 | 8.55 | 5.84 |  | 3.57 |  |
| CC(=O)CN=C(C)NNc1ccc([N+](=O)[O-])cc1[N+](=O)[O-] | > 100 | > 100 | > 100 | > 100 | > 100 | > 100 | > 100 | > 100 |  | > 100 | > 100 | > 100 |
| COc1cccc(/C=N/n2c(-c3ccccc3)n[nH]c2=O)c1 | > 100 | > 100 | > 100 | > 100 | > 100 | > 100 | > 100 | > 100 |  | > 100 | > 100 | 38.8 |
| CC(C)(C)SC1=CCC[C@@H](P(=O)(c2ccccc2)c2ccccc2)[C@@H]2CCC[C@@H]12 | 28.3 | 36.3 | 85.3 | 30.3 |  | 30.4 | 27.1 | 34.1 | 28.9 | 41.9 | 35.2 | 47.6 |
| CCCCCCCCCCCCCCCCCCNc1ccn(C2OC(CO)C(OP(=O)(O)OCC3CCC(n4ccc(N)nc4=O)O3)C2O)c(=O)n1 (stereo unspecified) | > 100 | 94.8 | > 100 | > 100 | > 100 | > 100 | > 100 | > 100 | > 100 |  | > 100 | > 100 |
| c1ccc(C2CC(N3CCOCC3)=Nc3ccccc3N2)cc1 (stereo unspecified) | > 100 | > 100 | > 100 | > 100 | > 100 | > 100 | > 100 | > 100 |  | > 100 | > 100 | > 100 |
| CC(C)(C)OC(=O)C1/C(=C/CO)CN1C(=O)OC(C)(C)C (stereo unspecified) | > 100 | > 100 | > 100 | > 100 |  | > 100 | > 100 | > 100 | > 100 | > 100 | > 100 | > 100 |
